Numbered stars: 1 amine (or outer) side, 2 acyl side, 3 side chain; on linkers, the order of the positions; unused ones are H or OH. Square brackets hold non-standard residues; d marks the D form. Side chains are listed from the residue outwards. Peptide text beside a SMILES is read from it. * marks the point of attachment. C18 diacid = O=C(O)CCCCCCCCCCCCCCCCC(=O)*; γGlu = O=C(O)[C@H](CCC(=O)[*:2])N[*:1]; AEEA = NCCOCCOCC(=O)O; Aib = CC(C)(N)C(=O)O
Legend:
[1] = Thioflavin T (ThT) fibrillation assay for physical stability; format: physicochemical; conditions: 250 μM in 10 mM HEPES buffer, pH 7.5, 37° C., shaking 960 rpm
Procedure, shortened: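 Peptide at 250 μM in 10 mM HEPES pH 7.5 with 1 μM ThT, at 37° C with 960 rpm orbital shaking. Fluorescence (ex 444/em 485 nm) read every 20 min after 10 min pre-incubation; sigmoidal fit gives lag time (t0−2τ) and kapp (1/τ). Recovery is RP-HPLC peptide in the centrifuged, 0.22 μm-filtered supernatant as % of initial.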

[2] = Chemical stability assessment by RP-UPLC; format: physicochemical; conditions: 333 μM, 8 mM phosphate buffer pH 7.3, 37° C. vs 5° C.
Procedure, shortened: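 Purity loss = (purity after 14 days at 5° C. minus that at 37° C.) relative to the 5° C. value, purity being main-peak area % by RP-UPLC with UV at 215 nm. Samples were 333 μM in 8 mM phosphate, pH 7.3; gradient adjusted for outlying retention times.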

Row | Structure (SMILES) | THT assay Lag time (Ex. 76) [1] | Purity loss; 14 days at 37° C. [2]
1 | CC(C)C[C@H](NC(=O)[C@H](Cc1ccc(O)cc1)NC(=O)[C@H](CCCCN)NC(=O)[C@H](CO)NC(=O)[C@H](CC(C)C)NC(=O)[C@H](CC(=O)O)NC(=O)[C@H](CO)NC(=O)[C@@H](NC(=O)[C@H](Cc1ccccc1)NC(=O)[C@@H](NC(=O)CNC(=O)[C@H](CCC(N)=O)NC(=O)C(C)(C)NC(=O)[C@@H](N)Cc1c[nH]cn1)[C@@H](C)O)[C@@H](C)O)C(=O)N[C@@H](CC(=O)O)C(=O)N[C@@H](CO)C(=O)N[C@@H](CCCNC(=N)N)C(=O)N[C@@H](CCCNC(=N)N)C(=O)N[C@@H](C)C(=O)N[C@@H](CCCNC(=N)N)C(=O)N[C@@H](CCC(=O)O)C(=O)N[C@@H](Cc1ccccc1)C(=O)N[C@H](C(=O)N[C@@H](CCC(N)=O)C(=O)N[C@@H](Cc1c[nH]c2ccccc12)C(=O)N[C@@H](CC(C)C)C(=O)N[C@@H](CC(C)C)C(=O)N[C@@H](CCCCNC(=O)CC[C@H](NC(=O)CC[C@H](NC(=O)COCCOCCNC(=O)COCCOCCNC(=O)CC[C@H](NC(=O)CCCCCCCCCCCCCCCCC(=O)O)C(=O)O)C(=O)O)C(=O)O)C(=O)N[C@H](C(N)=O)[C@@H](C)O)C(C)C [Example 56, N^ε28-[(4S)-4-carboxy-4-[[(4S)-4-carboxy-4-[[2-[2-[2-[[2-[2-[2-[[(4S)-4-carboxy-4-(17-carboxyheptadecanoylamino)butanoyl]amino]ethoxy]ethoxy]acetyl]amino]ethoxy]ethoxy]acetyl]amino]butanoyl]amino]butanoyl]-[Aib2,Leu10,Arg20,Glu21,Leu27,Lys28]-Glucagon amide] (H-H[Aib]QGTFTSDLSKYLDSRRAREFVQWLLK([γGlu-γGlu-AEEA-AEEA-γGlu-C18 diacid])T-NH2) | 45 h | 4%
2 | CC(C)C[C@H](NC(=O)[C@H](CC(=O)O)NC(=O)[C@H](CC(C)C)NC(=O)[C@H](Cc1ccc(O)cc1)NC(=O)[C@H](CCCCN)NC(=O)[C@H](CO)NC(=O)[C@H](CC(C)C)NC(=O)[C@H](CC(=O)O)NC(=O)[C@H](CO)NC(=O)[C@@H](NC(=O)[C@H](Cc1ccccc1)NC(=O)[C@@H](NC(=O)CNC(=O)[C@H](CCC(N)=O)NC(=O)C(C)(C)NC(=O)[C@@H](N)Cc1c[nH]cn1)[C@@H](C)O)[C@@H](C)O)C(=O)N[C@@H](CCCCN)C(=O)N[C@@H](CCCNC(=N)N)C(=O)N[C@@H](C)C(=O)N[C@@H](CCCNC(=N)N)C(=O)N[C@@H](CCC(=O)O)C(=O)N[C@@H](Cc1ccccc1)C(=O)N[C@H](C(=O)N[C@@H](CCC(N)=O)C(=O)N[C@@H](Cc1c[nH]c2ccccc12)C(=O)N[C@@H](CC(C)C)C(=O)N[C@@H](CC(C)C)C(=O)N[C@@H](CCCCNC(=O)CC[C@H](NC(=O)CC[C@H](NC(=O)COCCOCCNC(=O)COCCOCCNC(=O)CC[C@H](NC(=O)CCCCCCCCCCCCCCCCC(=O)O)C(=O)O)C(=O)O)C(=O)O)C(=O)N[C@H](C(N)=O)[C@@H](C)O)C(C)C [Example 26, N^ε28-[(4S)-4-carboxy-4-[[(4S)-4-carboxy-4-[[2-[2-[2-[[2-[2-[2-[[(4S)-4-carboxy-4-(17-carboxyheptadecanoylamino)butanoyl]amino]ethoxy]ethoxy]-acetyl]amino]ethoxy]ethoxy]acetyl]amino]butanoyl]amino]butanoyl]-[Aib2,Leu10,Leu16,Lys17,Arg20,Glu21, Leu27,Lys28]-Glucagon amide] (H-H[Aib]QGTFTSDLSKYLDLKRAREFVQWLLK([γGlu-γGlu-AEEA-AEEA-γGlu-C18 diacid])T-NH2) | 45 h | 2%

From patent US9474790B2, “Stable, protracted GLP-1/glucagon receptor co-agonists for medical use” (Novo Nordisk A/S, priority 2013, dated 2016)
